Measurements as given in patent publication US4536335A, “Carbapenem antibiotics” (Bristol-Myers Company, priority 1983, dated 1985).
Converted amounts (≈) assume the structure as drawn. Like-named read-outs stand apart in the source and are kept apart here.

Columns and labels:
[1] = tested on: S. pyogenes A-9604; assay: In vitro MIC, tube dilution; assay type: cell-based; conditions: Nutrient Broth, overnight incubation at 37° C.; for MIC: Streptococcus pyogenes, A9604, tube dilution
[2] = tested on: P. mirabilis A-9900; assay: In vitro MIC, tube dilution; assay type: cell-based; conditions: Nutrient Broth, overnight incubation at 37° C.; for MIC: Proteus mirabilis, A9900, tube dilution
[3] = tested on: S. aureus A-9537; assay: In vitro MIC, tube dilution; assay type: cell-based; conditions: Staphylococcus aureus, overnight incubation at 37° C.
[4] = tested on: E. cloacae A-9656; assay: In vitro MIC, tube dilution; assay type: cell-based; conditions: tube dilution, Nutrient Broth, overnight incubation at 37° C.; for MIC: Enterobacter cloacae, A9656
[5] = tested on: P. aeruginosa A21213; assay: In vitro MIC, tube dilution; assay type: cell-based; conditions: Nutrient Broth, overnight incubation at 37° C.; for MIC: Pseudomonas aeruginosa, A21213, tube dilution
[6] = tested on: P. aeruginosa A-9843A; assay: In vitro MIC, tube dilution; assay type: cell-based; conditions: Pseudomonas aeruginosa, A9843A, Nutrient Broth, overnight incubation at 37° C.
[7] = tested on: E. coli A15119; assay: In vitro MIC, tube dilution; assay type: cell-based; conditions: Escherichia coli, A15119, tube dilution, Nutrient Broth, overnight incubation at 37° C.
[8] = tested on: K. pneumoniae A-9664; assay: In vitro MIC, tube dilution; assay type: cell-based; conditions: Nutrient Broth, overnight incubation at 37° C.; for MIC: Klebsiella pneumoniae, A9664, tube dilution
[9] = tested on: P. aeruginosa A-9843a; assay: Protective effect in the intramuscular treatment of infected mice (PD50); assay type: in vivo; conditions: Pseudomonas aeruginosa, A9843A, im
Experimental: The PD50 (dose in mg/kg required to give protection to 50% of the infected mice) is indicated.
(§1) Treatment Schedule: Mice were treated i.m. with drugs 0 and 2 hours post-infection; 5 mice per dose were used for each test
*For compound of Ex. 2, mice were infected i.p. with 2 × 10^9
compounds of Ex. 4 and 5, mice were infected i.p. with ~9 ×
were treated i.m. with drugs 0 and 2 h postinfection.

[10] = tested on: P. mirabilis A-9900; assay: as above; assay type: in vivo; conditions: Proteus mirabilis, A9900, im, read-out: PD50/Treatment, P. mirabilis A-9900
Experimental: as §1

[11] = tested on: K. pneumoniae A20468; assay: In vitro MIC, tube dilution; assay type: cell-based; conditions: Klebsiella pneumoniae, A20468, tube dilution, Nutrient Broth, overnight incubation at 37° C.
[12] = tested on: S. faecalis A20688; assay: In vitro MIC, tube dilution; assay type: cell-based; conditions: Nutrient Broth, overnight incubation at 37° C.; for MIC: Enterococcus faecalis, A20688, tube dilution
[13] = tested on: P. vulgaris A21559; assay: In vitro MIC, tube dilution; assay type: cell-based; conditions: Proteus vulgaris, A21559, tube dilution, Nutrient Broth, overnight incubation at 37° C.
[14] = tested on: S. pneumoniae A-9585; assay: In vitro MIC, tube dilution; assay type: cell-based; conditions: overnight incubation at 37° C.; for MIC: Streptococcus pneumoniae, A9585, Nutrient Broth
[15] = tested on: E. coli A20341-1; assay: In vitro MIC, tube dilution; assay type: cell-based; conditions: Escherichia coli, A203411, tube dilution, Nutrient Broth, overnight incubation at 37° C.
[16] = tested on: P. morganii A15153; assay: In vitro MIC, tube dilution; assay type: cell-based; conditions: Morganella morganii, A15153, tube dilution, Nutrient Broth, overnight incubation at 37° C.; read-out: MIC P. morganii A15153
[17] = tested on: P. rettgeri A22424; assay: In vitro MIC, tube dilution; assay type: cell-based; conditions: Providencia rettgeri, A22424, tube dilution, Nutrient Broth, overnight incubation at 37° C.
[18] = Urinary recovery after intramuscular administration to mice; assay type: in vivo; conditions: mouse, urine, im, 20 mg/kg, mice, i.m. 20 mg/kg
Experimental: Compounds were solubilized in 0.1 M phosphate buffer pH 7. Values are from a single test; 4 mice per compound.
(§2) Also shown is the urinary recovery in the mice.
***Recovery based on 0-6 hour collection

[19] = Toxicity after intracranial administration to mice; conditions: mouse, in vivo
Source text: | *Average of 25/mice/compound

[20] = tested on: S. marcescens A20019; assay: In vitro MIC, tube dilution; assay type: cell-based; conditions: tube dilution, Nutrient Broth, overnight incubation at 37° C.; for MIC: Serratia marcescens, A20019
[21] = tested on: S. aureus A-9606 (Pen-res.); assay: In vitro MIC, tube dilution; assay type: cell-based; conditions: Nutrient Broth, overnight incubation at 37° C.; for MIC: Staphylococcus aureus
[22] = tested on: E. cloacae A-9569; assay: In vitro MIC, tube dilution; assay type: cell-based; conditions: Enterobacter cloacae, A9569, Nutrient Broth, overnight incubation at 37° C.
Source text: (§3) N-Formimidoyl thienamycin was included as a comparison compound.

[23] = tested on: B. fragilis A22862; assay: In vitro MIC, tube dilution; assay type: cell-based; conditions: Bacteroides fragilis, Nutrient Broth, overnight incubation at 37° C.
Source text: as §3

[24] = tested on: B. fragilis A22863; assay: In vitro MIC, tube dilution; assay type: cell-based; conditions: Bacteroides fragilis, Nutrient Broth, overnight incubation at 37° C.
Source text: as §3

[25] = tested on: B. fragilis A22053; assay: In vitro MIC, tube dilution; assay type: cell-based; conditions: Bacteroides fragilis, Nutrient Broth, overnight incubation at 37° C.
Source text: as §3

[26] = tested on: B. fragilis A22696; assay: In vitro MIC, tube dilution; assay type: cell-based; conditions: Bacteroides fragilis, Nutrient Broth, overnight incubation at 37° C.
Source text: as §3

[27] = Blood levels in mice after intramuscular administration; assay type: in vivo; conditions: mouse
Source text: Compounds were solubilized in 0.1 M phosphate buffer pH 7. Values are fro
a single test; 4 mice used per compound.
*t1/2 refers to halflife in minutes
**AUC refers to the area under the blood concentrationtime curve
as §2
Compounds were solubilized in 0.1 M phosphate buffer, pH 7.
Values based on a single test; 4 mice per compound.
*T1/2 refers to halflife in minutes

[28] = tested on: S. aureus A-9606; assay: Protective effect in the intramuscular treatment of infected mice (PD50); assay type: in vivo; conditions: Staphylococcus aureus, A9606, im, read-out: PD50/treatment, S. aureus A-9606, mice infected i.p. (Ex. 2: 2 × 10^9 organisms; Ex. 4 and 5: ~9 × 10^7), treated i.m. 0 and 2 h postinfection
[29] = tested on: P. aeruginosa A20481; assay: as above; assay type: in vivo; conditions: Pseudomonas aeruginosa, A20481, im; mice infected i.p. (Ex. 2: 1 × 10^5 organisms), treated i.m. 0 and 2 h postinfection
[30] = 6-24 hours after administration, read-out: Percentage of Dose Recovered in urine, 6-24 hours
[31] = read-out: MIC S. aureus A-9606 (Pen-res.)
[32] = tube dilution, additional data table, listed as MK 0787

C[C@@H](O)[C@H]1C(=O)N2C(C(=O)[O-])=C(SCC[N+]3(C)CCCC3)C[C@H]12 [Example 1, 3-[2-(N-methylpyrrolidinium)ethylthio]-6α-[1-(R)-hydroxyethyl]-7-oxo-1-azabicyclo [3.2.0]hept-2-ene-2-carboxylate]
MIC [1]: 0.002 mg/L (≈ 0.00587 µM)
MIC [2]: 0.13 mg/L (≈ 0.382 µM)
MIC ([3]; A9537, + 50% serum, tube dilution, read-out: MIC S. aureus + 50% serum A-9537): 0.016 mg/L
MIC ([3]; A9537, tube dilution, Nutrient Broth, read-out: MIC S. aureus A-9537): 0.008 mg/L (≈ 0.0235 µM)
MIC [4]: 0.13 mg/L (≈ 0.382 µM)
MIC [5]: 0.25 mg/L (≈ 0.734 µM)
MIC [6]: 4 mg/L (≈ 11.7 µM)
MIC [7]: 0.03 mg/L (≈ 0.0881 µM)
MIC [8]: 0.06 mg/L (≈ 0.176 µM)
ED50 ([9]; mice, challenge 3 × 10^6 organisms, treated i.m. 0 and 2 hours post-infection, read-out: PD50/Treatment, P. aeruginosa A-9843a): 3 mg/kg
ED50 [10]: > 10 mg/kg
MIC [11]: 0.13 mg/L (≈ 0.382 µM)
MIC [12]: 1 mg/L (≈ 2.94 µM)
MIC [13]: 0.03 mg/L (≈ 0.0881 µM)
MIC [14]: 0.002 mg/L (≈ 0.00587 µM)
MIC [15]: 0.03 mg/L (≈ 0.0881 µM)
MIC [16]: 0.13 mg/L (≈ 0.382 µM)
MIC [17]: 0.25 mg/L (≈ 0.734 µM)
dose excreted at 3 h ([18]; 0-3 hours after administration, read-out: Percentage of Dose Recovered in urine, 0-3 hours): 18.8%
dose excreted at 24 h ([18]; 0-24 hours after administration, read-out: Percentage of Dose Recovered in urine, 0-24 hours): 19.5 ± 3.2%
dose excreted at 6 h ([18]; 3-6 hours after administration, read-out: Percentage of Dose Recovered in urine, 3-6 hours): 0.6%
dose excreted at 24 h [18, 30]: 0.1%
NOAEL [19]: > 10 mg/kg
LD50 ([19]; intracranial administration to mice, average of 25 mice/compound): > 10 mg/kg
MIC [20]: 0.06 mg/L (≈ 0.176 µM)
MIC [21, 31]: 0.016 mg/L (≈ 0.047 µM)
MIC [22]: 0.25 mg/L (≈ 0.734 µM)
MIC [23]: 0.13 mg/L (≈ 0.382 µM)
MIC [24]: 0.13 mg/L (≈ 0.382 µM)
MIC [25]: 0.25 mg/L (≈ 0.734 µM)
MIC [26]: 0.5 mg/L (≈ 1.47 µM)
AUC ([27]; blood, im, 20 mg/kg, mice, i.m. 20 mg/kg, Example 1 table, read-out: AUC (area under the blood concentration-time curve)): 5.4 µg·h/mL
half-life ([27]; blood, im, 20 mg/kg, mice, i.m. 20 mg/kg, Example 1 table, read-out: t1/2 (half-life in blood)): 11 min
concentration at 10 min ([27]; blood, im, mice, i.m. 20 mg/kg, 10 min, read-out: Blood Level 10 minutes after administration): 13.7 µg/mL
concentration at 20 min ([27]; blood, im, mice, i.m. 20 mg/kg, 20 min, read-out: Blood Level 20 minutes after administration): 10.2 µg/mL
concentration at 0.5 h ([27]; blood, im, mice, i.m. 20 mg/kg, 30 min, read-out: Blood Level 30 minutes after administration): 5.7 µg/mL
concentration at 0.75 h ([27]; blood, im, mice, i.m. 20 mg/kg, 45 min, read-out: Blood Level 45 minutes after administration): 2.1 µg/mL
concentration at 1 h ([27]; blood, im, mice, i.m. 20 mg/kg, 60 min, read-out: Blood Level 60 minutes after administration): < 0.6 µg/mL
concentration at […] ([27]; blood, im, mice, i.m. 20 mg/kg, 90 min, read-out: Blood Level 90 minutes after administration): < 0.6 µg/mL

C[C@@H](O)[C@H]1C(=O)N2C(C(=O)O)=C(SCCN=CN)C[C@H]12 [N-Formimidoyl Thienamycin, N-formimidoyl thienamycin, reference compound]
MIC [1]: 0.001 mg/L (≈ 0.00334 µM)
MIC ([1]; additional data table): 0.002 mg/L (≈ 0.00668 µM)
MIC S. pyogenes A-9604 [1, 32]: 0.001 mg/L (≈ 0.00334 µM)
MIC [2]: 0.06 mg/L (≈ 0.2 µM)
MIC ([2]; additional data table): 0.03 mg/L (≈ 0.1 µM)
MIC P. mirabilis A-9900 [2, 32]: 0.06 mg/L (≈ 0.2 µM)
MIC [4]: 0.06 mg/L (≈ 0.2 µM)
MIC E. cloacae A-9656 ([4]; additional data table): 0.06 mg/L (≈ 0.2 µM)
MIC [5]: 0.25 mg/L (≈ 0.835 µM)
MIC ([5]; additional data table): 0.13 mg/L (≈ 0.434 µM)
MIC P. aeruginosa A21213 [5, 32]: 0.25 mg/L (≈ 0.835 µM)
MIC [6]: 1 mg/L (≈ 3.34 µM)
MIC ([6]; additional data table): 1 mg/L (≈ 3.34 µM)
ED50 [28]: 0.07 mg/kg
MIC [8]: 0.13 mg/L (≈ 0.434 µM)
MIC ([8]; additional data table): 0.03 mg/L (≈ 0.1 µM)
MIC K. pneumoniae A-9664 [8, 32]: 0.06 mg/L (≈ 0.2 µM)
ED50 ([9]; read-out: PD50/treatment, P. aeruginosa A9843A): 1 mg/kg
ED50 ([9]; mice, i.m., *Historical data, read-out: PD50/Treatment, P. aeruginosa A-9843a (historical data)): 0.5 mg/kg
MIC [11]: 0.06 mg/L (≈ 0.2 µM)
MIC [12]: 0.5 mg/L (≈ 1.67 µM)
MIC ([12]; additional data table): 0.25 mg/L (≈ 0.835 µM)
MIC S. faecalis A20688 [12, 32]: 0.5 mg/L (≈ 1.67 µM)
MIC S. pneumoniae A-9585 ([14]; Nutrient Broth, additional data table, listed as MK 0787): 0.001 mg/L (≈ 0.00334 µM)
MIC [14]: 0.004 mg/L (≈ 0.0134 µM)
MIC ([14]; additional data table): 0.002 mg/L (≈ 0.00668 µM)
MIC [16]: 0.13 mg/L (≈ 0.434 µM)
MIC [17]: 0.25 mg/L (≈ 0.835 µM)
MIC ([17]; additional data table): 0.13 mg/L (≈ 0.434 µM)
ED50 [29]: 0.4 mg/kg
dose excreted at 24 h [18, 30]: < 0.1%
MIC [20]: 0.03 mg/L (≈ 0.1 µM)
MIC S. marcescens A20019 ([20]; additional data table): 0.03 mg/L (≈ 0.1 µM)
MIC S. aureus (Pen-res.) A-9606 ([21]; additional data table, listed as MK 0787): 0.004 mg/L (≈ 0.0134 µM)
MIC ([21]; additional data table, read-out: MIC S. aureus (Pen-res.) A-9606): 0.008 mg/L (≈ 0.0267 µM)
MIC [21, 31]: 0.008 mg/L (≈ 0.0267 µM)
MIC [22]: 0.06 mg/L (≈ 0.2 µM)
MIC [24]: 1 mg/L (≈ 3.34 µM)
MIC [25]: 0.06 mg/L (≈ 0.2 µM)
MIC [26]: 0.13 mg/L (≈ 0.434 µM)
Blood AUC ([27]; intramuscular dose of 20 mg/kg): 6 µg·h/mL
